Data published in US11945825B2, “Compositions and methods for regulating glucose homeostasis and insulin action” (UNIVERSITY OF VIRGINIA PATENT FOUNDATION, priority 2012, dated 2024).

Columns and labels:
[1] = mouse, in vivo; cited from earlier work
[2] = patients consuming ˜300 mg/d, over several months, no change in food intake; cited from earlier work
[3] = tested on: AMP-activated protein kinase; conditions: L6 cells, 40 min
L6 myotubes = conditions: 5 min treatment
L6 myoblasts [4] = conditions: 1 μM uncoupler, 1 μM oligomycin
[5] = tested on: isolated mouse liver mitochondria; conditions: 5 μM
L6 cells [6] = conditions: 20 μM, 20 min
L6 cells [7] = tested on: L6 cells
L6 myoblasts [8] = assay: Oxygen consumption rate dose response (Seahorse XF24); type: cell-based, rat

Row | SMILES | metabolic effects in mice [1] | average weight loss [2] [pounds per week] | AMPK activation [3] | intracellular acidification relative to BAM15 (L6 myotubes) [fold] | respiration in the presence of oligomycin (L6 myoblasts [4]) | electron donation to the ETC ([5]; after 2 μM rotenone) | effect on complex II (succinate-stimulated respiration) ([5]; succinate added at 20 min) | cellular ATP levels (L6 cells [6]) | plasma membrane potential (L6 cells [7]; current clamp, resting membrane potential, 10 μM) | current under voltage clamp (L6 cells [7]; holding potential −70 mV, 1 μM and 10 μM) | plasma membrane conductance (L6 cells [7]; voltage clamp, −130 mV to −60 mV) | shape of oxygen consumption dose response curve (L6 myoblasts [8])
1 | O=[N+]([O-])c1ccc(O)c([N+](=O)[O-])c1 [DNP, 2,4-dinitrophenol] | improved serological glucose, triglyceride, and insulin levels, as well as decreased oxidative damage, reduced body weight, and increased longevity | 1.5 |  |  |  |  |  |  |  |  |  | 
2 | N#CC(C#N)=NNc1ccc(OC(F)(F)F)cc1 [FCCP, carbonyl cyanide p-trifluoromethoxyphenylhydrazone] |  |  | activation of AMP-activated protein kinase | 2 | increase oxygen consumption in the presence of oligomycin | do not donate electrons to the ETC downstream of complex I | do not affect complex II | loss of cellular ATP | reversible and repeatable plasma membrane depolarization | induced an inward current | increase in conductance | inverted bell shaped curve of effectiveness
